Test results as given in PubChem BioAssay AID276 (DTP/NCI, 2004).
Where “and” joins values, the source holds several entries; their conditions need not be identical. Equal entries are not always repeated. Toxic doses and inconclusive results are not listed.

Test system: B6C3F1 mice, Lewis lung carcinoma iv, survival T/C
Assay: NCI In Vivo Anticancer Drug Screen. Data for tumor model Lewis Lung Carcinoma (intravenous) in B6C3F1 mice
Details: endpoint: median survival time, higher = longer survival
Summary of the method: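 Mice carrying transplanted tumors received test compound; survival in the treated group was divided by that of the vehicle-treated control group to give the T/C value.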

[1] = dose: 50.0 mg/kg/injection, schedule: Q01DX009 (ip), vehicle: water
[2] = dose: 100.0 mg/kg/injection, schedule: Q01DX009 (ip), vehicle: water
[3] = dose: 200.0 mg/kg/injection, schedule: Q01DX009 (ip), vehicle: water
[4] = dose: 400.0 mg/kg/injection, schedule: Q01DX009 (ip), vehicle: water
[5] = dose: 6.25 mg/kg/injection, schedule: Q01DX009 (ip), vehicle: saline with Tween-80
[6] = dose: 25.0 mg/kg/injection, schedule: Q01DX009 (ip), vehicle: saline with Tween-80
[7] = dose: 50.0 mg/kg/injection, schedule: Q01DX009 (ip), vehicle: saline with Tween-80
[8] = dose: 100.0 mg/kg/injection, schedule: Q01DX009 (ip), vehicle: saline with Tween-80

In the case of O=NN(CCF)C(=O)NC1CCC(=O)NC1=O (centres undefined), the T/C (dose: 2.5 mg/kg/injection, schedule: Q01DX009 (ip), vehicle: saline) is reported as 118 % of control, the T/C (dose: 10.0 mg/kg/injection, schedule: Q01DX009 (ip), vehicle: saline) is reported as 166 % of control and the T/C (dose: 20.0 mg/kg/injection, schedule: Q01DX009 (ip), vehicle: saline) is reported as 312 % of control.
CCCCCCCC(=O)O[C@H]1[C@H]2[C@@H](CC1(C)C)C(=O)[C@]13O[C@H]1C(=O)[C@]1(CO1)[C@]23C was tested, and the T/C (dose: 1.25 mg/kg/injection, schedule: Q01DX009 (ip), vehicle: saline with Tween-80) was 100 % of control, the T/C (dose: 2.5 mg/kg/injection, schedule: Q01DX009 (ip), vehicle: saline with Tween-80) was 97 % of control and the T/C (dose: 5.0 mg/kg/injection, schedule: Q01DX009 (ip), vehicle: saline with Tween-80) was 102 % of control. The T/C (dose: 10.0 mg/kg/injection, schedule: Q01DX009 (ip), vehicle: saline with Tween-80) was 88 % of control.
In the case of CC(C)[C@](O)(C(=O)OCC1=CCN2CC[C@@H](O)[C@@H]12)[C@H](C)O, the T/C (dose: 25.0 mg/kg/injection, schedule: Q01DX009 (ip), vehicle: water) is reported as 100 % of control, the T/C [1] is reported as 97 % of control and the T/C [2] is reported as 100 % of control. For the same molecule, the T/C [3] was 109 % of control and the T/C [4] was 102 % of control.
For C/C=C(\C)c1cc(=O)c2c(C)cc3c(c2o1)C(=O)c1c(O)c(C2CC(C)(N(C)C)C(OC(C)=O)C(C)O2)cc(C2CC(N(C)C)C(O)C(C)O2)c1C3=O (centres undefined), the T/C (dose: 0.15 mg/kg/injection, schedule: Q01DX009 (ip), vehicle: suspension in saline) was 101 % of control, the T/C (dose: 0.31 mg/kg/injection, schedule: Q01DX009 (ip), vehicle: suspension in saline) was 103 % of control and the T/C (dose: 0.62 mg/kg/injection, schedule: Q01DX009 (ip), vehicle: suspension in saline) was 97 % of control. For the same molecule, the T/C (dose: 1.25 mg/kg/injection, schedule: Q01DX009 (ip), vehicle: suspension in saline) was 107 % of control, the T/C (dose: 2.5 mg/kg/injection, schedule: Q01DX009 (ip), vehicle: suspension in saline) was 111 % of control and the T/C (dose: 5.0 mg/kg/injection, schedule: Q01DX009 (ip), vehicle: suspension in saline) was 106 % of control.
O=C1NC(=O)NC(C(=O)O)N1 was tested, and the T/C (dose: 50.0 mg/kg/injection, schedule: Q01DX009 (ip), vehicle: DMSO) was 101 % of control, the T/C (dose: 100.0 mg/kg/injection, schedule: Q01DX009 (ip), vehicle: DMSO) was 105 % of control and the T/C (dose: 200.0 mg/kg/injection, schedule: Q01DX009 (ip), vehicle: DMSO) was 98 % of control. For the same molecule, the T/C (dose: 400.0 mg/kg/injection, schedule: Q01DX009 (ip), vehicle: DMSO) was 110 % of control.
For CN(C)N=Nc1cccc(C(N)=O)c1, the T/C (dose: 10.0 mg/kg/injection, schedule: Q01DX009 (ip), vehicle: Klucel (hydroxypropylcellulose) (HPC)) was 114 % of control and the T/C (dose: 20.0 mg/kg/injection, schedule: Q01DX009 (ip), vehicle: Klucel (hydroxypropylcellulose) (HPC)) was 115 % of control.
In the case of C=C(C)/C([O-])=N/[N+](C)(C)CC(O)CCCCCCCCCCCC (centres undefined), the T/C (dose: 1.56 mg/kg/injection, schedule: Q01DX001 (ip), vehicle: saline) is reported as 96 % of control, the T/C (dose: 3.12 mg/kg/injection, schedule: Q01DX001 (ip), vehicle: saline) is reported as 104 % of control and the T/C (dose: 6.25 mg/kg/injection, schedule: Q01DX001 (ip), vehicle: saline) is reported as 98 % of control. The T/C (dose: 12.5 mg/kg/injection, schedule: Q01DX001 (ip), vehicle: saline) was 109 % of control, the T/C (dose: 25.0 mg/kg/injection, schedule: Q01DX001 (ip), vehicle: saline) was 103 % of control and 106 % of control and the T/C (dose: 50.0 mg/kg/injection, schedule: Q01DX001 (ip), vehicle: saline) was 98 % of control and 100 % of control. For the same molecule, the T/C (dose: 100.0 mg/kg/injection, schedule: Q01DX001 (ip), vehicle: saline) was 95 % of control and the T/C (dose: 200.0 mg/kg/injection, schedule: Q01DX001 (ip), vehicle: saline) was 97 % of control.
In the case of Cc1c(N)nc(C(CC(N)=O)NCC(N)C(N)=O)nc1C(=O)NC(C(=O)NC(C)C(O)C(C)C(=O)NC(C(=O)NCCc1nc(-c2nc(C(=O)NCCCNCCCc3ccccn3)cs2)cs1)C(C)O)C(OC1OC(CO)C(O)C(O)C1OC1OC(CO)C(O)C(OC(N)=O)C1O)c1cnc[nH]1 (centres undefined), the T/C (dose: 2.0 mg/kg/injection, schedule: Q01DX009 (ip), vehicle: saline) is reported as 113 % of control, the T/C (dose: 3.0 mg/kg/injection, schedule: Q01DX009 (ip), vehicle: saline + alcohol) is reported as 108 % of control and the T/C (dose: 4.0 mg/kg/injection, schedule: Q01DX009 (ip), vehicle: saline) is reported as 110 % of control. The T/C (dose: 6.0 mg/kg/injection, schedule: Q01DX009 (ip), vehicle: saline + alcohol) was 108 % of control, the T/C (dose: 6.25 mg/kg/injection, schedule: Q01DX009 (ip), vehicle: saline) was 122 % of control and the T/C (dose: 8.0 mg/kg/injection, schedule: Q01DX009 (ip), vehicle: saline) was 114 % of control. The T/C (dose: 12.0 mg/kg/injection, schedule: Q01DX009 (ip), vehicle: saline + alcohol) was 123 % of control and the T/C (dose: 12.5 mg/kg/injection, schedule: Q01DX009 (ip), vehicle: saline) was 123 % of control.
COc1cccc2c1C(=O)c1c(O)c3c(c(O)c1C2=O)C[C@@](O)(C(C)=O)C[C@@H]3OC1CC(N(Cc2ccccc2)Cc2ccccc2)C(O)C(C)O1 (some centres undefined) was tested, and the T/C (dose: 1.5 mg/kg/injection, schedule: Q01DX009 (ip), vehicle: saline with Tween-80) was 104 % of control, the T/C (dose: 1.5 mg/kg/injection, schedule: Q01DX009 (ip), vehicle: water) was 96 % of control and the T/C (dose: 1.56 mg/kg/injection, schedule: Q01DX009 (ip), vehicle: saline with Tween-80) was 103 % of control. For the same molecule, the T/C (dose: 3.0 mg/kg/injection, schedule: Q01DX009 (ip), vehicle: saline with Tween-80) was 112 % of control, the T/C (dose: 3.0 mg/kg/injection, schedule: Q01DX009 (ip), vehicle: water) was 99 % of control and the T/C (dose: 3.12 mg/kg/injection, schedule: Q01DX009 (ip), vehicle: saline with Tween-80) was 114 % of control. The T/C (dose: 6.0 mg/kg/injection, schedule: Q01DX009 (ip), vehicle: saline with Tween-80) was 113 % of control and the T/C [5] was 112 % of control and 116 % of control.
For Cc1cc(NCCCCCCCCNc2cc(C)nc3cc(N(C)C)ccc23)c2ccc(N(C)C)cc2n1, the T/C (dose: 3.12 mg/kg/injection, schedule: Q01DX009 (ip), vehicle: distilled water + Tween-80 + alcohol) was 102 % of control, the T/C (dose: 6.25 mg/kg/injection, schedule: Q01DX009 (ip), vehicle: distilled water + Tween-80 + alcohol) was 102 % of control and the T/C (dose: 12.5 mg/kg/injection, schedule: Q01DX009 (ip), vehicle: distilled water + Tween-80 + alcohol) was 109 % of control. For the same molecule, the T/C (dose: 25.0 mg/kg/injection, schedule: Q01DX009 (ip), vehicle: distilled water + Tween-80 + alcohol) was 111 % of control and 118 % of control.
With CNC(=O)c1cccc2c(Nc3ccc(NS(C)(=O)=O)cc3OC)c3cccc(C)c3nc12 the T/C (dose: 3.0 mg/kg/injection, schedule: Q04DX003 (ip), vehicle: saline + alcohol) was 114 % of control, the T/C (dose: 3.12 mg/kg/injection, schedule: Q04DX003 (ip), vehicle: saline + alcohol) was 118 % of control and the T/C (dose: 6.0 mg/kg/injection, schedule: Q04DX003 (ip), vehicle: saline + alcohol) was 156 % of control. The T/C (dose: 12.5 mg/kg/injection, schedule: Q04DX003 (ip), vehicle: saline + alcohol) was 181 % of control and 309 % of control (2×), the T/C (dose: 12.5 mg/kg/injection, schedule: Q04DX003 (ip), vehicle: water) was 178 % of control and the T/C (dose: 25.0 mg/kg/injection, schedule: Q04DX003 (ip), vehicle: water) was 260 % of control.
With COc1ccc2[nH]c3ccc4cc[n+](CCN5CCC(C6CCN(CC[n+]7ccc8ccc9[nH]c%10ccc(OC)cc%10c9c8c7)CC6)CC5)cc4c3c2c1 the T/C (dose: 6.25 mg/kg/injection, schedule: Q01DX009 (ip), vehicle: Klucel (hydroxypropylcellulose) (HPC)) was 106 % of control, the T/C (dose: 12.5 mg/kg/injection, schedule: Q01DX009 (ip), vehicle: Klucel (hydroxypropylcellulose) (HPC)) was 91 % of control and 103 % of control and the T/C (dose: 25.0 mg/kg/injection, schedule: Q01DX009 (ip), vehicle: Klucel (hydroxypropylcellulose) (HPC)) was 99 % of control.
For BrCCC1(CCBr)CCCCC1, the T/C [1] was 104 % of control, the T/C [2] was 103 % of control and the T/C [3] was 98 % of control. For the same molecule, the T/C [4] was 96 % of control.
O=C(C/C(=N\C(=S)Nc1cc(C(F)(F)F)ccc1Cl)NO)N1CCCC1 was tested, and the T/C [6] was 98 % of control and 101 % of control, the T/C [7] was 99 % of control and 105 % of control and the T/C [8] was 101 % of control and 111 % of control. For the same molecule, the T/C (dose: 200.0 mg/kg/injection, schedule: Q01DX009 (ip), vehicle: saline with Tween-80) was 99 % of control.
In the case of Nc1nc2c(C(=O)N3CCCC3)nnn2c2ccccc12, the T/C [5] is reported as 100 % of control, the T/C (dose: 12.5 mg/kg/injection, schedule: Q01DX009 (ip), vehicle: saline with Tween-80) is reported as 99 % of control and the T/C [6] is reported as 100 % of control. For the same molecule, the T/C [7] was 107 % of control and the T/C [8] was 99 % of control.
